Laboratory results reported in patent publication US9561231B2 (AbbVie Inc., priority 2012, dated 2017).
Where two headings read alike, the source gives them in different places.

Assays:
[1] = system: breast cancer cell line MX-1; test: MX-1 cell line proliferation assay (3-day); format: cell-based; conditions: MX-1 cells, Cell Titer Glo, read-out: Cellular proliferation: EC50
Experimental: The impact of compounds of the Examples on cancer cell proliferation was determined using the breast cancer cell line MX-1 (ATCC) in a 3-day proliferation assay. MX-1 cells were maintained in RPMI supplemented with 10% FBS at 37° C. and an atmosphere of 5% CO2. For compound testing, MX-1 cells were plated in 96-well black bottom plates at a density of 5000 cells/well in 90 μL of culture media and incubated at 37° overnight to allow cell adhesion and spreading. Compound dilution series were prepared in DMSO via a 3-fold serial dilution from 3 mM to 0.1 μM. The DMSO dilution series were then diluted 1:100 in phosphate buffered saline, and 10 μL of the resulted solution were added to the appropriate wells of the MX-1 cell plate. The final compound concentrations in the wells were 3, 1, 0.3, 0.1, 0.03, 0.01, 0.003, 0.001, 0.0003 and 0.0001 μM.
Luminescence readings from the Cell Titer Glo assay were normalized to the DMSO treated cells and analyzed using the GraphPad Prism software with sigmoidal curve fitting to obtain EC50s.

[2] = target: T1, first (BD1: amino acids K57-E168) bromodomain of BRD4 (Homo sapiens, UniProt O60885); test: TR-FRET bromodomain binding assay, BRD4 BD1; conditions: Ki calculated from IC50, probe Kd and probe concentration, read-out: TR-FRET Binding Ki: BRD4 (BDI_K57-E168)
T1 construct: His-tagged first (BD1: amino acids K57-E168)
Procedure, shortened: (§1)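 Displacement of Alexa647-labeled BET-inhibitor probe from His-tagged bromodomain, TR-FRET read-out; buffer 20 mM Na phosphate pH 6.0, 50 mM NaCl, 0.01% Triton X-100. IC50 by 4PL fit; Ki calculated from IC50, probe Kd and probe concentration.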

[3] = target: T2, second (BD2: amino acids E352-E168) bromodomain of BRD4 (Homo sapiens, UniProt O60885); test: TR-FRET bromodomain binding assay, BRD4 BD2; conditions: Ki calculated from IC50, probe Kd and probe concentration, read-out: TR-FRET Binding Ki: BRD4 (BDII_E352-M457)
T2 construct: protocol
Procedure, shortened: as §1

[4] = TR-FRET assay protocol (A-G, compound concentration range)
[5] = Homo sapiens, MX1, 72 h incubation
[6] = TR-FRET assay protocol (D, E or G) per compound

In the case of “1-(2-chloro-5-fluorophenyl)-N-[4-(2,4-difluorophenoxy)-3-(4-ethoxy-1-methyl-6-oxo-1,6-dihydropyridin-3-yl)phenyl]methanesulfonamide [Example 350]”, the EC50 ([1]; 72 h incubation) is reported as 1000 nM.
`Cn1nc(-c2ccccc2Oc2ccccc2)ccc1=O` [Example 1, 2-methyl-6-(2-phenoxyphenyl)pyridazin-3(2H)-one] was tested, and the Ki [2, 4] was 1870 nM, the Ki [3, 4] was 2050 nM and the EC50 [1, 5] was 20000 nM.
For `Cn1nc(-c2ccccc2OCc2ccccc2)ccc1=O` [Example 2, 6-[2-(benzyloxy)phenyl]-2-methylpyridazin-3(2H)-one], the Ki [2, 4] was 11700 nM, the Ki [3, 4] was 2860 nM and the EC50 [1, 5] was 13500 nM.
Molecule `Cn1cc(-c2cc(NS(C)(=O)=O)ccc2Oc2ccc(F)cc2F)c(C(F)(F)F)cc1=O` [Example 5, N-{4-(2,4-difluorophenoxy)-3-[1-methyl-6-oxo-4-(trifluoromethyl)-1,6-dihydropyridin-3-yl]phenyl}methanesulfonamide] has a Ki [2, 4] of 922 nM, a Ki [3, 4] of 688 nM and an EC50 [1, 5] of over 3000 nM.
`Cn1nc(-c2cc(N)ccc2Oc2ccccc2)ccc1=O` [Example 10, 6-(5-amino-2-phenoxyphenyl)-2-methylpyridazin-3(2H)-one] gave a Ki [2, 4] of 2440 nM, a Ki [3, 4] of 1500 nM and an EC50 [1, 5] of 3700 nM.
In the case of `Cc1ccc(S(=O)(=O)Nc2ccc(Oc3ccccc3)c(-c3ccc(=O)n(C)n3)c2)cc1` [Example 11, 4-methyl-N-[3-(1-methyl-6-oxo-1,6-dihydropyridazin-3-yl)-4-phenoxyphenyl]benzenesulfonamide], the Ki [2, 4] is reported as 4040 nM, the Ki [3, 4] is reported as 4370 nM and the EC50 [1, 5] is reported as 9460 nM.
Work on `CC(=O)Nc1ccc(Oc2ccccc2)c(-c2ccc(=O)n(C)n2)c1` [Example 12, N-[3-(1-methyl-6-oxo-1,6-dihydropyridazin-3-yl)-4-phenoxyphenyl]acetamide] yielded a Ki [2, 4] of 575 nM, a Ki [3, 4] of 696 nM and an EC50 [1, 5] of 2660 nM.
Molecule `Cn1nc(-c2cc(C(N)=O)ccc2Oc2ccccc2)ccc1=O` [Example 14, 3-(1-methyl-6-oxo-1,6-dihydropyridazin-3-yl)-4-phenoxybenzamide] has a Ki [2, 4] of 2550 nM, a Ki [3, 4] of 1220 nM and an EC50 [1, 5] of 11500 nM.
For `CC(=O)NCc1ccc(Oc2ccccc2)c(-c2ccc(=O)n(C)n2)c1` [Example 16, N-[3-(1-methyl-6-oxo-1,6-dihydropyridazin-3-yl)-4-phenoxybenzyl]acetamide], the Ki [2, 4] was 1110 nM, the Ki [3, 4] was 8420 nM and the EC50 [1, 5] was 5900 nM.
In the case of `Cn1nc(-c2cc(CNC(=O)C(F)(F)F)ccc2Oc2ccccc2)ccc1=O` [Example 17, 2,2,2-trifluoro-N-[3-(1-methyl-6-oxo-1,6-dihydropyridazin-3-yl)-4-phenoxybenzyl]acetamide], the Ki [2, 4] is reported as 513 nM, the Ki [3, 4] is reported as 4520 nM and the EC50 [1, 5] is reported as 2630 nM.
For `COc1cc(=O)n(C)nc1-c1cc(NS(=O)(=O)N(C)C)ccc1Oc1ccccc1` [Example 31, N′-[3-(4-methoxy-1-methyl-6-oxo-1,6-dihydropyridazin-3-yl)-4-phenoxyphenyl]-N,N-dimethylsulfuric diamide], the Ki [3, 4] was 46.5 nM and the EC50 [1, 5] was 420 nM.
`CCS(=O)(=O)Nc1ccc(OCC2CC2)c(-c2ccc(=O)n(C)c2)c1C` [Example 365, N-[4-(cyclopropylmethoxy)-2-methyl-3-(1-methyl-6-oxo-1,6-dihydropyridin-3-yl)phenyl]ethanesulfonamide] was tested, and the Ki [2, 4] was 1350 nM and the Ki [3, 4] was over 4440 nM.
`CCS(=O)(=O)Nc1cc(-c2ccc(=O)n(C)c2)c(OCC2CC2)cc1C` [Example 366, N-[4-(cyclopropylmethoxy)-2-methyl-5-(1-methyl-6-oxo-1,6-dihydropyridin-3-yl)phenyl]ethanesulfonamide] showed a Ki [2, 4] of 629 nM and a Ki [3, 4] of 570 nM.
`CCS(=O)(=O)c1ccc(Oc2ccc(F)cc2F)c(-c2cn(C)c(=O)cc2Cl)c1` [Example 382, 4-chloro-5-[2-(2,4-difluorophenoxy)-5-(ethylsulfonyl)phenyl]-1-methylpyridin-2(1H)-one] gave a Ki [2, 6] of 317 nM and a Ki [3, 6] of 276 nM.
Molecule `CCOC(=O)N1CCC(Oc2ccc(NS(=O)(=O)CC)cc2-c2cn(C)c(=O)cc2OCC)CC1` [Example 388, ethyl 4-{2-(4-ethoxy-1-methyl-6-oxo-1,6-dihydropyridin-3-yl)-4-[(ethylsulfonyl)amino]phenoxy}piperidine-1-carboxylate] has a Ki [2, 6] of 766 nM and a Ki [3, 6] of 1420 nM.
Work on `CCOc1cc(=O)n(C)cc1-c1cc(NS(=O)(=O)CC)ccc1OC1CCN(C(C)=O)CC1` [Example 389, N-{4-[(1-acetylpiperidin-4-yl)oxy]-3-(4-ethoxy-1-methyl-6-oxo-1,6-dihydropyridin-3-yl)phenyl}ethanesulfonamide] yielded a Ki [2, 6] of 1260 nM and a Ki [3, 6] of 3990 nM.
`CCOc1cc(=O)n(C)cc1-c1cc(NS(=O)(=O)CC)ccc1OC1Cc2ccccc2C1` [Example 394, N-[4-(2,3-dihydro-1H-inden-2-yloxy)-3-(4-ethoxy-1-methyl-6-oxo-1,6-dihydropyridin-3-yl)phenyl]ethanesulfonamide] was tested, and the Ki [2, 6] was 272 nM and the Ki [3, 6] was 516 nM.
For `CCS(=O)(=O)c1ccc(Oc2ccc(F)cc2F)c(-c2cc(=O)n(C)cc2OCC(F)(F)F)c1` [Example 398, 4-[2-(2,4-difluorophenoxy)-5-(ethylsulfonyl)phenyl]-1-methyl-5-(2,2,2-trifluoroethoxy)pyridin-2(1H)-one], the EC50 ([1]; 72 hours with compound) was 450 nM.
Work on `CCS(=O)(=O)c1ccc(Oc2ccc(F)cc2F)c(-c2cn(C)c(=O)cc2OCC(F)(F)F)c1` [Example 398] yielded a Ki [2, 6] of 203 nM and a Ki [3, 6] of 30.9 nM.
Work on `CCOc1cc(=O)n(C)cc1-c1cc(N)ccc1Oc1ccc(F)cc1F` [Example 406, 5-[5-amino-2-(2,4-difluorophenoxy)phenyl]-4-ethoxy-1-methylpyridin-2(1H)-one] yielded a Ki [2, 6] of 1550 nM and a Ki [3, 6] of 567 nM.
In the case of `CCOc1cc(=O)n(C)cc1-c1cc(S(C)(=O)=O)ccc1NCc1ccc(F)cc1F` [Example 409, 5-{2-[(2,4-difluorobenzyl)amino]-5-(methylsulfonyl)phenyl}-4-ethoxy-1-methylpyridin-2(1H)-one], the Ki [2, 6] is reported as 2010 nM and the Ki [3, 6] is reported as 1100 nM.
Work on `CCOc1cc(=O)n(C)cc1-c1cc(NS(=O)(=O)CC)ccc1OC1CCN(c2ccc(C(F)(F)F)cc2)CC1` [Example 410, N-[3-(4-ethoxy-1-methyl-6-oxo-1,6-dihydropyridin-3-yl)-4-({1-[4-(trifluoromethyl)phenyl]piperidin-4-yl}oxy)phenyl]ethanesulfonamide] yielded a Ki [2, 6] of 590 nM and a Ki [3, 6] of 560 nM.
With `CCOc1cc(=O)n(C)cc1-c1cc(NC(=O)c2ccc(C(C)C)cc2)ccc1Oc1ccc(F)cc1F` [Example 413, N-[4-(2,4-difluorophenoxy)-3-(4-ethoxy-1-methyl-6-oxo-1,6-dihydropyridin-3-yl)phenyl]-4-(propan-2-yl)benzamide] the Ki [2, 6] was 181 nM and the Ki [3, 6] was 148 nM.
With `CCOc1cc(=O)n(C)cc1-c1cc(NC(=O)c2cnc(C)cn2)ccc1Oc1ccc(F)cc1F` [Example 414, N-[4-(2,4-difluorophenoxy)-3-(4-ethoxy-1-methyl-6-oxo-1,6-dihydropyridin-3-yl)phenyl]-5-methylpyrazine-2-carboxamide] the Ki [2, 6] was 61.4 nM and the Ki [3, 6] was 38.9 nM.
Work on `CCOc1cc(=O)n(C)cc1-c1cc(NS(=O)(=O)c2ccc(C(C)(C)C)cc2)ccc1Oc1ccc(F)cc1F` [Example 416, 4-tert-butyl-N-[4-(2,4-difluorophenoxy)-3-(4-ethoxy-1-methyl-6-oxo-1,6-dihydropyridin-3-yl)phenyl]benzenesulfonamide] yielded a Ki [2, 6] of 493 nM and a Ki [3, 6] of 281 nM.
In the case of `CCOc1cc(=O)n(C)cc1-c1cc(NS(=O)(=O)c2ccc(Cl)cc2Cl)ccc1Oc1ccc(F)cc1F` [Example 417, 2,4-dichloro-N-[4-(2,4-difluorophenoxy)-3-(4-ethoxy-1-methyl-6-oxo-1,6-dihydropyridin-3-yl)phenyl]benzenesulfonamide], the Ki [2, 6] is reported as 259 nM and the Ki [3, 6] is reported as 57.1 nM.
For `CCOc1cc(=O)n(C)cc1-c1cc(NS(=O)(=O)c2ccc3ccccc3c2)ccc1Oc1ccc(F)cc1F` [Example 418, N-[4-(2,4-difluorophenoxy)-3-(4-ethoxy-1-methyl-6-oxo-1,6-dihydropyridin-3-yl)phenyl]naphthalene-2-sulfonamide], the Ki [2, 6] was 362 nM and the Ki [3, 6] was 165 nM.
For “N-[4-(2,4-difluorophenoxy)-3-(4-ethoxy-1-methyl-6-oxo-1,6-dihydropyridin-3-yl)phenyl]-1-phenylmethanesulfonamide [Example 311]”, the EC50 ([1]; 72 h incubation) was 1000 nM.
In the case of “N-{4-(4-cyanophenoxy)-3-[1-methyl-6-oxo-4-(2,2,2-trifluoroethoxy)-1,6-dihydropyridin-3-yl]phenyl}ethanesulfonamide [Example 374]”, the EC50 ([1]; 72 hours with compound) is reported as 76.1 nM.
